Reference: article PMC11897524 (Frontiers in Pharmacology, 2025)

Columns and labels:
[1] = tested on: panel of 76 human kinases; assay: SelectScreen kinase selectivity panel; assay type: biochemical
Procedure: The kinase selectivity profile of BST-4 was performed by the SelectScreen kinase profiling service (Thermo Fisher Scientific). Kinase selectivity assay was performed using Z′-LYTE ™ screening protocol kit. Briefly, the test compounds were screened in 1% DMSO (final). For 10-point titrations, perform a 3-fold dilution starting at a starting concentration of 50 µM. Then 2.5 µL 4× test compound, 2.4 µL kinase buffer, 5 µL 2× kinase mixture and 2.5 µL 4× ATP solution was added in black 384-well plate. After shaking for 30 s, the plates were incubated for 60 min at room temperature. Add developing reagent solution and shake the plate for 30 s, then incubate for 1 h at room temperature. The Fluorescence intensity per well was read using a fluorescence plate reader. SelectScreen® Kinase Profiling Service used XLfit from IDBS. The dose response curve was curve fit to model number 205 (sigmoidal dose-response model) and inhibition rates were calculated. 50% inhibition was used as a activity threshold. IC50 values were calculated based on curve fitting.

[2] = tested on: STAT3 phosphorylation; assay: Western blot of phosphorylated STAT3 in CAKI-2 cells; assay type: cell-based, human; settings: 100 nM, 24 h
Procedure: For the assessment of protein expression levels, Western blot analysis was conducted following a standardized protocol ([Zhou et al., 2022]). The CAKI-2 cells were initially rinsed with PBS to remove any residual culture medium. Subsequently, cells were lysed using a RIPA buffer supplemented with 1 mM phenylmethylsulfonyl fluoride (PMSF), and the lysate was incubated on ice for a duration of 1 h. The lysate was centrifuged at a speed of 13,000 rpm for 30 min at 4°C. Protein concentrations were quantified using a BCA protein assay kit (Beyotime, Shanghai, China), ensuring equal protein loading for each sample. Samples were then resolved by SDS-PAGE and transferred onto a polyvinylidene difluoride (PVDF) membrane. Subsequently, the membrane was blocked with 3% BSA in PBS at room temperature for 2 h and incubated overnight with the corresponding antibody at 4°C. After washing to remove unbound primary antibodies, the membrane was incubated with horseradish peroxidase (HRP)-conjugated secondary antibodies for a period of 1 h at room temperature. The specific protein bands were visualized using ECL detection system (Tanon, Shanghai, China), and the band intensities were quantified using ImageJ software.

[3] = target: BRD2 (Homo sapiens, UniProt P25440); assay: Inhibitory effect on BET and STAT family members; assay type: binding
BRD2, sequence (P25440 whole entry): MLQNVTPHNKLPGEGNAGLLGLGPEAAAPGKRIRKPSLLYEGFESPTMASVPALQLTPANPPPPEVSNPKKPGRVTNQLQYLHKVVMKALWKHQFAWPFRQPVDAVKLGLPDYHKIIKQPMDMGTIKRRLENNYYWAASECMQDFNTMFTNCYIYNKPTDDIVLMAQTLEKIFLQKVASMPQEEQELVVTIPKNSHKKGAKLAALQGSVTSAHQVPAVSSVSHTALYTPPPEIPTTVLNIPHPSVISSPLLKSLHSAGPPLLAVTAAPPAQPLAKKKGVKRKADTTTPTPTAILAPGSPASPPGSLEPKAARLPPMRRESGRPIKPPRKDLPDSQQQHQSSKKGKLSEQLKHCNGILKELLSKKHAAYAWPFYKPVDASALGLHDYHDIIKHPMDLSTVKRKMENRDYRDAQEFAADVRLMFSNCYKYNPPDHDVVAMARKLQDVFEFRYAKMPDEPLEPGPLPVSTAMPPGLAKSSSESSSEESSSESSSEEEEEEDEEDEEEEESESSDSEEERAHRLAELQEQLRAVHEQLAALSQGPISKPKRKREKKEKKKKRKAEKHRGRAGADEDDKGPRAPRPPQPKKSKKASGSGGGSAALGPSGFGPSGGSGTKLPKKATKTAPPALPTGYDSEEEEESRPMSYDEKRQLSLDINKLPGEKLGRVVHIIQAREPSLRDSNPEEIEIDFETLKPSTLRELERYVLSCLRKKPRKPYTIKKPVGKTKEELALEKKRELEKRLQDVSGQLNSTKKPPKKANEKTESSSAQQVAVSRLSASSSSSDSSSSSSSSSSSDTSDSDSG
Excerpt: (§1) TABLE 4 The inhibitory effect of BST-4 on other members of the BET and STAT families. | column: IC50 (μM)

[4] = target: BRDT (Homo sapiens, UniProt Q58F21); assay: Inhibitory effect on BET and STAT family members; assay type: binding
Excerpt: as §1

[5] = target: STAT4 (Homo sapiens, UniProt Q14765); assay: Inhibitory effect on BET and STAT family members; assay type: binding
STAT4, sequence (Q14765 whole entry): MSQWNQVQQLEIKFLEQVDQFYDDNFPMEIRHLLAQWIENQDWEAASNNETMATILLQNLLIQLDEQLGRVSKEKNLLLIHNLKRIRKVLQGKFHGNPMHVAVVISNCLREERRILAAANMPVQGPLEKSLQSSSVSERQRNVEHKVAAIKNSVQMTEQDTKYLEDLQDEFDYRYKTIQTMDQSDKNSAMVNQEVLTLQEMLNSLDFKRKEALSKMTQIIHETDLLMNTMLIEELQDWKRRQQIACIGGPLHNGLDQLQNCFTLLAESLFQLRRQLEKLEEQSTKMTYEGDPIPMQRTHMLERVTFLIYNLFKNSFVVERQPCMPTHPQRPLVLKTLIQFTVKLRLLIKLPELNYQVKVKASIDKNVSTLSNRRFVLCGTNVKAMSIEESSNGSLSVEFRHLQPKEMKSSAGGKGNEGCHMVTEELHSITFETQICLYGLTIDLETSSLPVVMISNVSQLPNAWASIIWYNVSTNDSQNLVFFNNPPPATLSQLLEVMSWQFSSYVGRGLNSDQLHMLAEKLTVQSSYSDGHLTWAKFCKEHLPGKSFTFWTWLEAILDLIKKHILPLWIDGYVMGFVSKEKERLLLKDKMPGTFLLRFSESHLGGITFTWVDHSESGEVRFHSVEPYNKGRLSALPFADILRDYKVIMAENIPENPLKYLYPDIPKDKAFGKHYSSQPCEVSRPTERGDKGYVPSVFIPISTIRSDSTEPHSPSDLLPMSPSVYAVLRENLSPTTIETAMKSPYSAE
Excerpt: as §1

[6] = target: STAT5a (Homo sapiens, UniProt P42229); assay: Inhibitory effect on BET and STAT family members; assay type: binding
STAT5a, sequence (P42229 whole entry): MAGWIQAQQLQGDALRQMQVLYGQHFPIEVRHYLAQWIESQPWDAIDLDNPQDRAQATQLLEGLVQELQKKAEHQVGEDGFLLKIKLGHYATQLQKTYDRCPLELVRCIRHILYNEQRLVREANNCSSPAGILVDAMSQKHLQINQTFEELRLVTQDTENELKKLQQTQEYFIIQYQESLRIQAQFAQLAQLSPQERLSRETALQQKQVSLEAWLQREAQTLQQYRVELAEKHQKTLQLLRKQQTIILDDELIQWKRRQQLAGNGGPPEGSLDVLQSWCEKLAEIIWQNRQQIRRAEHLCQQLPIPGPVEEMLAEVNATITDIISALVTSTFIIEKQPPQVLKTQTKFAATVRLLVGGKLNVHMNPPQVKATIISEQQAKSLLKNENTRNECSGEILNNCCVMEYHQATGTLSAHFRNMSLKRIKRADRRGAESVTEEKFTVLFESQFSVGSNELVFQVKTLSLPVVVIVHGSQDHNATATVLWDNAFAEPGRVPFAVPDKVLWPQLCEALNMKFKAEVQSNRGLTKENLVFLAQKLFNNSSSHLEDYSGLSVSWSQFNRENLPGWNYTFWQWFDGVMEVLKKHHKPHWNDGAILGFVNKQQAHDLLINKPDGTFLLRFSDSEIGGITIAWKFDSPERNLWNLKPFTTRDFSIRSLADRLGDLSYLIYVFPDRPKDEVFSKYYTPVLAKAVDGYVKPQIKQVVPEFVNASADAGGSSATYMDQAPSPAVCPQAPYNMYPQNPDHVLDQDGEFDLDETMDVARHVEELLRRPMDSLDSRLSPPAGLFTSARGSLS
Excerpt: as §1

[7] = target: STAT5b (Homo sapiens, UniProt P51692); assay: Inhibitory effect on BET and STAT family members; assay type: binding
STAT5b, sequence (P51692 whole entry): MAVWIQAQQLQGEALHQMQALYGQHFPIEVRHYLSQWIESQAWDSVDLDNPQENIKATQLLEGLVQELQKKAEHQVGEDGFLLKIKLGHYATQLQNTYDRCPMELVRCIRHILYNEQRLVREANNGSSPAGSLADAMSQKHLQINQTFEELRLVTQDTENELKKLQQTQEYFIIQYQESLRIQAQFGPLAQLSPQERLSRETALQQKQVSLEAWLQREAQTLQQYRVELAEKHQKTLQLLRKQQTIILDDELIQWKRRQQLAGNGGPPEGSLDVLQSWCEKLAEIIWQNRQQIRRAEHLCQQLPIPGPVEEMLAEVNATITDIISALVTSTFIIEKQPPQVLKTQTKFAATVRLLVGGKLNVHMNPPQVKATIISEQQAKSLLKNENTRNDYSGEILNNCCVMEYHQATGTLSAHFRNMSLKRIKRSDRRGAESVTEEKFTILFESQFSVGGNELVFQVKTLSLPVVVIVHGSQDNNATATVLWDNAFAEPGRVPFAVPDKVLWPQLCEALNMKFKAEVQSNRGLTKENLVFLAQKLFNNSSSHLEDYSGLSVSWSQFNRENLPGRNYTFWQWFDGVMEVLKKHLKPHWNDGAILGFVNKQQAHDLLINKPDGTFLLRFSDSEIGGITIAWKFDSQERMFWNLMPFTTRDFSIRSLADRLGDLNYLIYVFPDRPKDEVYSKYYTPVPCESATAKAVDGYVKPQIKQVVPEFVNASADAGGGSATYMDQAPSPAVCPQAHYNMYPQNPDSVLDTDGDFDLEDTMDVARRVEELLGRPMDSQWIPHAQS
Excerpt: as §1

[8] = target: BRD3 (Homo sapiens, UniProt Q15059); assay: Inhibitory effect on BET and STAT family members; assay type: binding
Excerpt: as §1

[9] = target: STAT2 (Homo sapiens, UniProt P52630); assay: Inhibitory effect on BET and STAT family members; assay type: binding
STAT2, sequence (P52630 whole entry): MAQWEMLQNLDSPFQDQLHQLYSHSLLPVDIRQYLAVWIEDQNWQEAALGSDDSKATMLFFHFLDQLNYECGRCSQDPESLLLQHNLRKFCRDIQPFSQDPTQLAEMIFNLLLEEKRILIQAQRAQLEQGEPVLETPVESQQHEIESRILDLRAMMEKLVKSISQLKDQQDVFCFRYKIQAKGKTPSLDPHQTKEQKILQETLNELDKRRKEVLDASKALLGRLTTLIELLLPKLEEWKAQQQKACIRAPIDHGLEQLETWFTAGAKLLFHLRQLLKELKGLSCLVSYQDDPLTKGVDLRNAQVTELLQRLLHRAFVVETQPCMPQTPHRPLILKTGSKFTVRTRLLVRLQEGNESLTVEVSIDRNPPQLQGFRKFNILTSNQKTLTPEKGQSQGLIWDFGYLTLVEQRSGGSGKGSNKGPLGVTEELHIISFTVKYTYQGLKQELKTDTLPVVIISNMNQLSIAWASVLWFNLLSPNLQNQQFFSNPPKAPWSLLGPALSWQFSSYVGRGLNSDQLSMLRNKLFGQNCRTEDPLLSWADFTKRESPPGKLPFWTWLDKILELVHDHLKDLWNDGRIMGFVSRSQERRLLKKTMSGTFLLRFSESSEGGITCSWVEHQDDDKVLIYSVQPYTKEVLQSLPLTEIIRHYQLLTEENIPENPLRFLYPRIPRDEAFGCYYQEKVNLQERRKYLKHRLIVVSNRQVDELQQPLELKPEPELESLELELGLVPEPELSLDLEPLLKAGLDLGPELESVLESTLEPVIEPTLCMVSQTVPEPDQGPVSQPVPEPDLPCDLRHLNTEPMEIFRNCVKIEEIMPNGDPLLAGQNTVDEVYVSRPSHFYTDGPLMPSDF
Excerpt: as §1

[10] = target: STAT6 (Homo sapiens, UniProt P42226); assay: Inhibitory effect on BET and STAT family members; assay type: binding
STAT6, sequence (P42226 whole entry): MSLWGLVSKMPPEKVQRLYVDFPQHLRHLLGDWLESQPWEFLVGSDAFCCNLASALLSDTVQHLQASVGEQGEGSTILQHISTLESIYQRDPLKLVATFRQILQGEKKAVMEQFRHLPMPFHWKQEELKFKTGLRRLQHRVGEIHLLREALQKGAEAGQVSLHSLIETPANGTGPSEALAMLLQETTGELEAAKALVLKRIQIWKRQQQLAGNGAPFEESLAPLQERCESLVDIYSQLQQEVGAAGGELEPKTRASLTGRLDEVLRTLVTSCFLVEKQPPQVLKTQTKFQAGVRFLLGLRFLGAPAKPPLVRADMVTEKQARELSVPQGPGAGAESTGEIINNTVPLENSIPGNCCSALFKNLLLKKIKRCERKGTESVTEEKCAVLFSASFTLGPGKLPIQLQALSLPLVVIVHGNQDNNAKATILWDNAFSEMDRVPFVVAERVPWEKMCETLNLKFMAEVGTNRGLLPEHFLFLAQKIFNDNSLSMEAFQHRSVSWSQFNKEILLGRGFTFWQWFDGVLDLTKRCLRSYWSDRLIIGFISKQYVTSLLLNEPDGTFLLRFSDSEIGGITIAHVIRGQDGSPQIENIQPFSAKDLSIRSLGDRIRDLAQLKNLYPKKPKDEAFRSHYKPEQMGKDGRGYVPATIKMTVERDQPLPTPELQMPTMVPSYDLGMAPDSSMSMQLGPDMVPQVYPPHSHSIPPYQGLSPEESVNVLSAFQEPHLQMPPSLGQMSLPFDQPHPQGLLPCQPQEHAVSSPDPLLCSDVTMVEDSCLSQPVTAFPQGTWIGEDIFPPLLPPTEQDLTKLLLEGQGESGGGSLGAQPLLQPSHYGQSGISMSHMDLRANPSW
Excerpt: as §1

[11] = target: STAT1 (Homo sapiens, UniProt P42224); assay: Inhibitory effect on BET and STAT family members; assay type: binding
Excerpt: as §1

CCS(=O)(=O)Cc1cnc(Oc2c(F)cc(F)cc2OCCCCOc2ccc(/C=C/c3cc(OC)cc(OC)c3)cc2)c(-c2cc(C)c3c(=O)[nH]ccn23)c1 [BST-4]
inhibition of all 76 kinases at 1 µM ([1]; 1 µM): less than 10%
IC50 ([1]; read-out: IC50 on panel of 76 human kinases, all kinases of the panel): > 10 µM
STAT3 phosphorylation in CAKI-2 cells [2]: significantly decreased
IC50 [3]: > 10 µM
IC50 [4]: > 10 µM
IC50 [5]: > 10 µM
IC50 [6]: > 10 µM
IC50 [7]: > 10 µM
IC50 [8]: > 10 µM
IC50 [9]: > 10 µM
IC50 [10]: > 10 µM
IC50 [11]: > 10 µM
